ChEMBL document CHEMBL6103656, “Discovery of BT-114143, a Novel and Potent Phosphoric Acid-Containing Small-Molecule Plasminogen Activation Inhibitor for Hyperfibrinolysis” (J Med Chem, 2025)
Activity calls are given as the source filed them. The rule behind the calls is not given here.

Experiments:
Blood = assay: Ratio of compound IC50 to TXA IC50 in anti-fibrinolytic activity in healthy human fresh blood by plasma clot lysis; type: functional
[1] = molecular target: Tissue-type plasminogen activator (Homo sapiens) (UniProt P00750); assay: Inhibition of recombinant human tissue plasminogen activator (rt-PA)-induced fibrinolysis in human fresh whole blood assessed as thrombus dissolution within 30 mins after reaching maximum amplitude (LY30) by thromboelastography analysis; type: functional, tissue-based
[2] = (§1) Inhibition of Plasminogen (unknown origin) binding to fibrin (unknown origin) interaction by surface plasmon resonance (SPR) analysis; parameters: species or system Homo sapiens
Homo sapiens = species: Homo sapiens; assay: as §1
[3] = Half life in Sprague-Dawley rat at 1 mg/kg, iv measured upto 24 hrs by LC-MS/MS analysis; type: ADME, organism-based; conditions: in vivo
[4] = Half life in beagle dog at 1 mg/kg, iv measured upto 24 hrs by LC-MS/MS analysis; type: ADME, organism-based, Canis lupus familiaris; conditions: in vivo
[5] = AUC (0 to infinity) in Sprague-Dawley rat at 1 mg/kg, iv measured upto 24 hrs by LC-MS/MS analysis; type: ADME, organism-based; conditions: in vivo
[6] = AUC (0 to infinity) in beagle dog at 1 mg/kg, iv measured upto 24 hrs by LC-MS/MS analysis; type: ADME, organism-based, Canis lupus familiaris; conditions: in vivo
[7] = Volume of distribution at steady state in Sprague-Dawley rat at 1 mg/kg, iv measured upto 24 hrs by LC-MS/MS analysis; type: ADME, organism-based; conditions: in vivo, read-out: Vdss
[8] = Volume of distribution at steady state in beagle dog at 1 mg/kg, iv measured upto 24 hrs by LC-MS/MS analysis; type: ADME, organism-based, Canis lupus familiaris; conditions: in vivo, read-out: Vdss
[9] = Clearance in Sprague-Dawley rat at 1 mg/kg, iv measured upto 24 hrs by LC-MS/MS analysis; type: ADME, organism-based; conditions: in vivo
[10] = Clearance in beagle dog at 1 mg/kg, iv measured upto 24 hrs by LC-MS/MS analysis; type: ADME, organism-based, Canis lupus familiaris; conditions: in vivo
Rattus norvegicus [11] = assay: Hemostatic effect in rt-PA enhanced Sprague-Dawley rat tail bleeding model assessed as reduction in tail bleeding time at 5 mg/kg infused into right jugular vein; type: functional, organism-based; conditions: route iv
Rattus norvegicus [12] = assay: Hemostatic effect in rt-PA enhanced Sprague-Dawley rat tail bleeding model assessed as reduction in tail bleeding time at 40 mg/kg infused into right jugular vein; type: functional, organism-based; conditions: route iv
[13] = molecular target: Tissue-type plasminogen activator (Rattus norvegicus) (UniProt P19637); assay: Inhibition of recombinant tissue plasminogen activator (rt-PA)-induced fibrinolysis in Sprague-Dawley rat fresh whole blood assessed as thrombus dissolution within 30 mins after reaching maximum amplitude (LY30) at > 3 uM by thromboelastography analysis; type: functional, tissue-based
Plasminogen [14] = molecular target: T1, Plasminogen (Homo sapiens, UniProt P00747); assay: Inhibition of plasminogen activation assessed as inhibition of recombinant human tissue plasminogen activator (rt-PA)-induced clot lysis measured after clot lysis pre-incubated for 15 mins by buffer clot lysis assay
Plasminogen [15] = molecular target: T1, Plasminogen; assay: Binding affinity to biotinylated Plasminogen (unknown origin) assessed as dissociation constant by surface plasmon resonance (SPR) analysis
[16] = Half life in Sprague-Dawley rat at 2 mg/kg, iv measured upto 24 hrs by LC-MS/MS analysis; type: ADME, organism-based; conditions: in vivo
[17] = Half life in beagle dog at 2 mg/kg, iv measured upto 24 hrs by LC-MS/MS analysis; type: ADME, organism-based, Canis lupus familiaris; conditions: in vivo
[18] = Half life in Sprague-Dawley rat at 2 mg/kg, IM measured upto 24 hrs by LC-MS/MS analysis; type: ADME, organism-based; conditions: in vivo
[19] = Half life in beagle dog at 2 mg/kg, IM measured upto 24 hrs by LC-MS/MS analysis; type: ADME, organism-based, Canis lupus familiaris; conditions: in vivo
[20] = AUC (0 to infinity) in Sprague-Dawley rat at 2 mg/kg, iv measured upto 24 hrs by LC-MS/MS analysis; type: ADME, organism-based; conditions: in vivo
[21] = AUC (0 to infinity) in beagle dog at 2 mg/kg, iv measured upto 24 hrs by LC-MS/MS analysis; type: ADME, organism-based, Canis lupus familiaris; conditions: in vivo
[22] = AUC (0 to infinity) in Sprague-Dawley rat at 2 mg/kg, IM measured upto 24 hrs by LC-MS/MS analysis; type: ADME, organism-based; conditions: in vivo
[23] = AUC (0 to infinity) in beagle dog at 2 mg/kg, IM measured upto 24 hrs by LC-MS/MS analysis; type: ADME, organism-based, Canis lupus familiaris; conditions: in vivo
[24] = Volume of distribution at steady state in Sprague-Dawley rat at 2 mg/kg, iv measured upto 24 hrs by LC-MS/MS analysis; type: ADME, organism-based; conditions: in vivo, read-out: Vdss
[25] = Volume of distribution at steady state in beagle dog at 2 mg/kg, iv measured upto 24 hrs by LC-MS/MS analysis; type: ADME, organism-based, Canis lupus familiaris; conditions: in vivo
[26] = Clearance in Sprague-Dawley rat at 2 mg/kg, iv measured upto 24 hrs by LC-MS/MS analysis; type: ADME, organism-based; conditions: in vivo
[27] = molecular target: Voltage-gated inwardly rectifying potassium channel KCNH2 (Homo sapiens, UniProt Q12809); assay: Inhibition of hERG; type: toxicity
[28] = molecular target: T2, GABA-A receptor; alpha-1/beta-2/gamma-2 (Homo sapiens, UniProt P14867+P18507+P47870); assay: Inhibition of GABA-A receptor alpha1beta2gamma2 (unknown origin); type: toxicity
T2 sequence (P14867 whole entry): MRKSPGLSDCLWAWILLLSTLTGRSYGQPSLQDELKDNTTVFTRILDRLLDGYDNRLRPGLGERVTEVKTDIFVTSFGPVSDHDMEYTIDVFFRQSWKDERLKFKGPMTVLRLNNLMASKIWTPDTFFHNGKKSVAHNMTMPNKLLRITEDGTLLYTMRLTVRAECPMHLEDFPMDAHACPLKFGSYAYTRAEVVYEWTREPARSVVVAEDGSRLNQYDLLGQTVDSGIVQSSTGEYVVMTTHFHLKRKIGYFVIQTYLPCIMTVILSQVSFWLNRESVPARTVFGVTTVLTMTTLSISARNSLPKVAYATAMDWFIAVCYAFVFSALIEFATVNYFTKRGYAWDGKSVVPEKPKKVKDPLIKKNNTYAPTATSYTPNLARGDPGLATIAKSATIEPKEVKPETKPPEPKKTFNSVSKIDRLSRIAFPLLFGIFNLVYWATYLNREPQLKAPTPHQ
T2 sequence (P47870 whole entry): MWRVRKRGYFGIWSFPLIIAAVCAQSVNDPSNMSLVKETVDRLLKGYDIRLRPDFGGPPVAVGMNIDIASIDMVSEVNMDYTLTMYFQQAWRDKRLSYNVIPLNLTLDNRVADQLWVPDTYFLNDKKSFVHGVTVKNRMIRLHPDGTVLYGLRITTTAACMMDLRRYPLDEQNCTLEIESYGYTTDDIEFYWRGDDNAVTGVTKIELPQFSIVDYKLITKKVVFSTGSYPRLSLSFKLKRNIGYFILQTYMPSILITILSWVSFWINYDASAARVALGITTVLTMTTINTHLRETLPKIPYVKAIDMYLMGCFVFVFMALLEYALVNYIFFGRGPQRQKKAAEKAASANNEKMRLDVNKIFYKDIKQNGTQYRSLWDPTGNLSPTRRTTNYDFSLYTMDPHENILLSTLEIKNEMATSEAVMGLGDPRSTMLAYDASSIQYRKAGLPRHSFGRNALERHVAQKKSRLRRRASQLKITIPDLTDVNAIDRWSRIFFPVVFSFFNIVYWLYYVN
T2 sequence (P18507 whole entry): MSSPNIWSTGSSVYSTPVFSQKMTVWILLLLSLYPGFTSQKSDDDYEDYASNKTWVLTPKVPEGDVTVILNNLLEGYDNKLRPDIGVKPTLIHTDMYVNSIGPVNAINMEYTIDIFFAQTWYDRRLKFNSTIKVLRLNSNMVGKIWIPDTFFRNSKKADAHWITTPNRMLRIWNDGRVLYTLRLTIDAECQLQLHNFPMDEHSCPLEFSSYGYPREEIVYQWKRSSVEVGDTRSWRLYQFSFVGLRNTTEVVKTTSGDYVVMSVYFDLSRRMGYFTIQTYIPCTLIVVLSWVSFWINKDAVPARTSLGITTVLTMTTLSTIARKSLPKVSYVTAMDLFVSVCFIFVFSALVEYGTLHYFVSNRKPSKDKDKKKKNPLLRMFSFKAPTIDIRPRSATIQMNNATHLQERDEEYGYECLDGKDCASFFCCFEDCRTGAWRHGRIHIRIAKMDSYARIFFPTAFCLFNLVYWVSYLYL

[29] = molecular target: Glycine receptor (alpha-1/beta) (Homo sapiens, UniProt P23415+P48167); assay: Inhibition of glycine receptor alpha1beta (unknown origin); type: toxicity
[30] = Maximum tolerated dose in Sprague-Dawley rat treated intravenously twice a day; type: toxicity, organism-based; conditions: in vivo, route iv
[31] = Maximum tolerated dose in beagle dog treated intravenously twice a day; type: toxicity, organism-based, Canis lupus familiaris; conditions: in vivo, route iv
[32] = Toxicity in Sprague-Dawley rat assessed as no observed adverse effect level (NOAEL) treated for 14 days; conditions: in vivo, time 14 day
[33] = Toxicity in beagle dog assessed as no observed adverse effect level (NOAEL) treated for 14 days; parameters: species or system Canis lupus familiaris; conditions: in vivo, time 14 day
[34] = Toxicity in CHO cells assessed as mutagenic effect by chromosome aberration test; type: cell-based, Cricetulus griseus; conditions: chinese hamster
[35] = Toxicity in rat peripheral blood cells assessed as clastogenic effect by micronucleus test; type: cell-based; conditions: erythrocyte

Sequence of Tissue-type plasminogen activator (Homo sapiens) (P00750 36-562 limits assumed): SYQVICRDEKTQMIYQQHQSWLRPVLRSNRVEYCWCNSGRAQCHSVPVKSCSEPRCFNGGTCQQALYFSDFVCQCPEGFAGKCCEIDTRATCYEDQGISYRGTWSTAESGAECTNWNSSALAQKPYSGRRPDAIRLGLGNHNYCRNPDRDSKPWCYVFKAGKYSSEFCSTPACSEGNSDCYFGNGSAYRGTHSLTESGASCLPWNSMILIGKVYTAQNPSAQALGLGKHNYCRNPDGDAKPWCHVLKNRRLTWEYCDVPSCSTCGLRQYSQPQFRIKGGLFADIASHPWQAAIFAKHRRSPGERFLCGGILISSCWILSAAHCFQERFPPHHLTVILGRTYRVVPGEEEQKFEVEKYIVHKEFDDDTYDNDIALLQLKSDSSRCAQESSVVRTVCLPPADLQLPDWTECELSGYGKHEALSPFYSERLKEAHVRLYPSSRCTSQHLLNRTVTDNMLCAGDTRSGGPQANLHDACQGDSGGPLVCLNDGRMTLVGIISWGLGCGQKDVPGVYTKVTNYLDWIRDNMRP
T1 sequence (P00747 97-580 limits assumed): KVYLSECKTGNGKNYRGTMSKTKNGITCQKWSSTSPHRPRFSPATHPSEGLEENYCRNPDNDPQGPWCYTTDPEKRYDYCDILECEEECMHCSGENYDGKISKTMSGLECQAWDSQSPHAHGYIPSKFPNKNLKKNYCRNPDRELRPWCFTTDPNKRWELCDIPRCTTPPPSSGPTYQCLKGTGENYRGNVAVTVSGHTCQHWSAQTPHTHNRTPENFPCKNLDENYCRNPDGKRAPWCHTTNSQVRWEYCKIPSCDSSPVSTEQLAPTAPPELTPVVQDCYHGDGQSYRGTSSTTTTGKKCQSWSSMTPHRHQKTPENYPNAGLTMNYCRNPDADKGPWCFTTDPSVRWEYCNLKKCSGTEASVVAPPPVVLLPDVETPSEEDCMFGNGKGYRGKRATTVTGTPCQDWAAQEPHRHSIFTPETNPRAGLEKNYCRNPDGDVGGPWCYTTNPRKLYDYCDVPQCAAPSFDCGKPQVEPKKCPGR
T1 sequence (P00747 581-810 limits assumed): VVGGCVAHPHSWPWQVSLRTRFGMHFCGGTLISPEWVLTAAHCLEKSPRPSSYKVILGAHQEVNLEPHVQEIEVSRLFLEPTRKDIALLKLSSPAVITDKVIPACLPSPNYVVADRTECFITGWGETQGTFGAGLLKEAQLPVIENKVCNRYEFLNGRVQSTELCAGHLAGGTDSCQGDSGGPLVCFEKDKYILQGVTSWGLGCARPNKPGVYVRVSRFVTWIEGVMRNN
Sequence of Tissue-type plasminogen activator (Rattus norvegicus) (P19637 whole entry): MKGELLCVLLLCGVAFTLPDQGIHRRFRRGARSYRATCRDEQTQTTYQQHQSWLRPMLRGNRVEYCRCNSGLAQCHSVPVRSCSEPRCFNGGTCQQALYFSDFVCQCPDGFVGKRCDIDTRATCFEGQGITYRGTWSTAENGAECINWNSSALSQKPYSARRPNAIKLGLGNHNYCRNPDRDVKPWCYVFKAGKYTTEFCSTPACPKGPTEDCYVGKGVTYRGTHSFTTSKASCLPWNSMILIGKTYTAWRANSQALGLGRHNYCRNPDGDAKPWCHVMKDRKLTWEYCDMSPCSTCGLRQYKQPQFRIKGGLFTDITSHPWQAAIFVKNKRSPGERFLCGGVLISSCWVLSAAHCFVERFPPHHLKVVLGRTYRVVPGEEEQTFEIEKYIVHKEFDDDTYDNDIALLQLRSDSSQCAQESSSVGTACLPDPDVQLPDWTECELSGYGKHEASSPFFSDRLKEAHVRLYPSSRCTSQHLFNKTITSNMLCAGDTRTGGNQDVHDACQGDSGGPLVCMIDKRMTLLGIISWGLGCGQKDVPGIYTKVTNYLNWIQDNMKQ
Sequence of Glycine receptor (alpha-1/beta) (P23415 whole entry): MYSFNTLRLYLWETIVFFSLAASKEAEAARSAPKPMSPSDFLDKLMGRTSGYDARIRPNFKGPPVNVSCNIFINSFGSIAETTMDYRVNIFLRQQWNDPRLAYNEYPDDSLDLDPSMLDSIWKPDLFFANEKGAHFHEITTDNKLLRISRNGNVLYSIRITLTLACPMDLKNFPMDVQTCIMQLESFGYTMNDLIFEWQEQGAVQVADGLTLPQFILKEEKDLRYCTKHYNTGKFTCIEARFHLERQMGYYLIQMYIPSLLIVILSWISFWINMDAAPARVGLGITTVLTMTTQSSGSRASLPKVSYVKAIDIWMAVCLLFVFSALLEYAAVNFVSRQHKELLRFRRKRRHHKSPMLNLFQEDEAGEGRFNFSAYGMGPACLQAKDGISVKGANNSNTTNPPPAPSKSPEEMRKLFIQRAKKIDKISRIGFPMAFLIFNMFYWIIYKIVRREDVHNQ
Sequence of Glycine receptor (alpha-1/beta) (P48167 whole entry): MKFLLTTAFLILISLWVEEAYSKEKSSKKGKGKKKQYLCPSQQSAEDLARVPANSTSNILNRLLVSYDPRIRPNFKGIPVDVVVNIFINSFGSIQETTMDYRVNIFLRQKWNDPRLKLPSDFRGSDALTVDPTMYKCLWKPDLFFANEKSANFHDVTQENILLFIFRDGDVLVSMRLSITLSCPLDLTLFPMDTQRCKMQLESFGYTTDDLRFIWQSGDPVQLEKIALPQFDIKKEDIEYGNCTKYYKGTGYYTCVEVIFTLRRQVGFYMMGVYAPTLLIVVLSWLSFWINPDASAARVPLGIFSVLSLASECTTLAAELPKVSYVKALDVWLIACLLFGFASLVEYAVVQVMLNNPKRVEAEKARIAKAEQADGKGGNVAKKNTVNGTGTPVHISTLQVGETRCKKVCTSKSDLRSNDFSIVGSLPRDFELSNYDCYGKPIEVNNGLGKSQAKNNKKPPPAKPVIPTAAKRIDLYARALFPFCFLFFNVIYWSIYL
Sequence of Voltage-gated inwardly rectifying potassium channel KCNH2 (Q12809 whole entry): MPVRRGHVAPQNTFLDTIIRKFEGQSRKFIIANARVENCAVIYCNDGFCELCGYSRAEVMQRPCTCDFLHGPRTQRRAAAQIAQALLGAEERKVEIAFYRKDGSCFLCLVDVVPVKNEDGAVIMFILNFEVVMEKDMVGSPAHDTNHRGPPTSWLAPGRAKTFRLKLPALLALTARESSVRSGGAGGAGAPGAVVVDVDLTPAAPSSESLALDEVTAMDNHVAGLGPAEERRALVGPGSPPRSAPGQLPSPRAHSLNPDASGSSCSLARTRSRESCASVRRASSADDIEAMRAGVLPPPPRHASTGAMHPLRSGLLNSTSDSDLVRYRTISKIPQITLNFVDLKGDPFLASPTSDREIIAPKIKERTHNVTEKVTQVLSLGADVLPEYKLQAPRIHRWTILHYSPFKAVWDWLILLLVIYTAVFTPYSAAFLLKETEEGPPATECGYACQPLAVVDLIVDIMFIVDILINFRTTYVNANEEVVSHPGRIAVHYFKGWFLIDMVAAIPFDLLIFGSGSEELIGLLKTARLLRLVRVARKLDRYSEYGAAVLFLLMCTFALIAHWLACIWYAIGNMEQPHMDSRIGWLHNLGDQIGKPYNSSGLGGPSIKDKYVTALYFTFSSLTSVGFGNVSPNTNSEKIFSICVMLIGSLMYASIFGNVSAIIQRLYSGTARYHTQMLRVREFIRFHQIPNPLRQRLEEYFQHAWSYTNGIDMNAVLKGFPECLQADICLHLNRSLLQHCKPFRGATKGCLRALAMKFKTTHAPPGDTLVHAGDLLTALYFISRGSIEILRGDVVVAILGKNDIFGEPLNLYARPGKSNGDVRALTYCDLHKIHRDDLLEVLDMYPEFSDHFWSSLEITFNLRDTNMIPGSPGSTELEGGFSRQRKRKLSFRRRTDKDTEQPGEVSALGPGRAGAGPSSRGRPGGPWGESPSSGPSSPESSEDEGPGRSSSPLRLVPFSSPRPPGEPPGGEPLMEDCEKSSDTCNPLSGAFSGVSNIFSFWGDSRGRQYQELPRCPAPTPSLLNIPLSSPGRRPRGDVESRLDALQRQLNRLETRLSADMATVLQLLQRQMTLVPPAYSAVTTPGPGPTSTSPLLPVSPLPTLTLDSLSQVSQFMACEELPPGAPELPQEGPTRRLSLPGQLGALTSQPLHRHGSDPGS

CC(C)(C)CC1Cc2nc(P(=O)(O)O)ccc2CN1.Cl (mixture of isomers)
Ratio IC50 (Blood): 0.19

NC[C@H]1CC[C@H](C(=O)O)CC1 [TRANEXAMIC ACID]
IC90 [1]: 10.1 µM | IC50 [2]: 5.33 µM | IC90 (Homo sapiens): 78.7 µM | half-life [3]: 1.28 h | half-life [4]: 5.34 h | AUC(0-inf) [5]: 2820 ng·h/mL | AUC(0-inf) [6]: 6680 ng·h/mL | Vd [7]: 0.296 L/kg | Vd [8]: 0.587 L/kg | clearance [9]: 5.78 mL/min/kg | clearance [10]: 2.46 mL/min/kg | Activity (Rattus norvegicus [11]): Active | Activity (Rattus norvegicus [12]): Active | inhibition [13]: Active

Cl.c1cc2c(nc1-c1nnn[nH]1)CCNC2
Ratio IC50 (Blood): 0.9

Cl.O=P(O)(O)c1ccc2c(n1)C(N1CCSCC1)CNC2 (mixture of isomers)
Ratio IC50 (Blood): 0.21

Cl.O=P(O)(Cc1ccccc1)c1ccc2c(n1)CCNC2
Ratio IC50 (Blood): 1.29

CCCC1Cc2nc(P(=O)(O)O)ccc2CN1.Cl (mixture of isomers)
Ratio IC50 (Blood): 0.2

CC(=O)NS(=O)(=O)c1ccc2c(n1)CCNC2.Cl
Ratio IC50 (Blood): >10

Cl.O=C(O)c1cc2c(cn1)CNCC2
Ratio IC50 (Blood): 4.33

Cl.O=P(O)(O)c1ccc2c(n1)CCNC2
Ratio IC50 (Blood): 0.19 | IC50 (Plasminogen [14]): 8.42 µM | IC90 [1]: 1.01 µM | Kd (Plasminogen [15]): 21.1 µM | IC50 [2]: 1.48 µM | IC90 (Homo sapiens): 4.71 µM | half-life [16]: 2.53 h | t1/2 [17]: 11.1 h | half-life [18]: 2.41 h | half-life [19]: 12.8 h | AUC(0-inf) [20]: 11600 ng·h/mL | AUC [21]: 16600 ng·h/mL | AUC(0-inf) [22]: 14200 ng·h/mL | AUC(0-inf) [23]: 16500 ng·h/mL | Vd [24]: 0.473 L/kg | Vdss [25]: 0.96 L/kg | clearance [26]: 2.64 mL/min/kg | Activity (Rattus norvegicus [11]): Active | Activity (Rattus norvegicus [12]): Active | inhibition [13]: Active | IC50 [27]: > 300 µM | IC50 [28]: 782 µM | IC50 [29]: 540 µM | MTD [30]: > 500 mg/kg | MTD [31]: > 500 mg/kg | NOAEL at 336 h [32]: 60 mg/kg | NOAEL at 336 h [33]: 70 mg/kg | Activity [34]: Non-toxic | Activity [35]: Non-toxic

Cl.O=C(O)c1nc2c(s1)CNCC2
Ratio IC50 (Blood): 0.94

CCP(=O)(O)c1ccc2c(n1)CCNC2.Cl
Ratio IC50 (Blood): 0.86

CC(C)(C)CCC1Cc2nc(P(=O)(O)O)ccc2CN1.Cl (mixture of isomers)
Ratio IC50 (Blood): 0.1

Cl.NC(=O)NC(=O)c1ccc2c(n1)CCNC2
Ratio IC50 (Blood): >10

Cl.O=P(O)(O)c1ccc2c(n1)C(N1CCOCC1)CNC2 (mixture of isomers)
Ratio IC50 (Blood): 0.3

Cl.O=c1[nH]c(-c2ccc3c(n2)CCNC3)no1
Ratio IC50 (Blood): 0.86

Cl.NS(=O)(=O)c1ccc2c(n1)CCNC2
Ratio IC50 (Blood): 4.26

Cl.O=C(O)c1nc2c([nH]1)CCNC2
Ratio IC50 (Blood): >10

CN(C)S(=O)(=O)NC(=O)c1ccc2c(n1)CCNC2.Cl
Ratio IC50 (Blood): 0.99
